The subject of one assay is (NZB x NZW)F1 mice. Put plainly: Prevention of proteinuria (SLE model) in female (NZB x NZW)F1 mice. The following applies: for Animals with proteinuria, 30-500 (mg/dl proteinuria) / Animals with proteinuria, >500 (mg/dl proteinuria) / Animals with proteinuria, Neg-Trace (mg/dl proteinuria) / development of proteinuria at 7.5 mos: oral; for Animals with proteinuria, 30-500 (mg/dl proteinuria) / Animals with proteinuria, >500 (mg/dl proteinuria) / Animals with proteinuria, Neg-Trace (mg/dl proteinuria): 0.05% MMI, 0.01% 5-phenylmethimazole, 0.05% 2-mercaptoimidazole; for development of proteinuria at 7.5 mos: compound 10 at a fifth the MMI concentration. Format: in vivo. The source says:
Female (NZB x NZW)F1 mice were obtained from Jackson Labs. Animals were followed with AMES 2855 Uristix (Miles) to semiquantitatively measure proteinuria. Proteinuria was taken as a measure of development of SLE and MMI suppression of proteinuria as suppression of renal complexes in kidney (Mozes et al., J. Clin Immunology 18:106-113 (1998)). At 7-8 mos. mice develop proteinuria reflecting renal disease. Treatment was from 2 mos to 6 mos of age. Treatment was oral. Each group had 8 animals to start.
In this experiment, immunohistology was performed in a blind fashion on 5 μm thick frozen kidney sections which were fixed and stained with FITC-conjugated goat antibodies to immunoglobulin G (γ chain specific) as described (Mozes, et al., Science 261:91-93 (1993); Mozes, E., et al., ibid (1998)). Compound 10, a tautomeric cyclic thione, and MMI are effective in preventing SLE in this experimental model.
Death of some animals in this experiment occurred for technical reasons, i.e. flooding of cages, handling, etc., in the last 2 mos. However, losses in the control group were similar to experimental groups. MMI, 2-mercaptoimidazole, and Compound 10 treatments were administered during the period between 2 and 6.25 months of age.

Assay [1] relates to γ-IFN-increased protein/DNA complex with DRα 5′-flanking region probe. Put plainly: Gel shift (EMSA) with 137 class II probe, extracts from γ-IFN-treated FRTL-5 cells. Format: cell-based, rat. The following applies: for % inhibition of IFN-increased complex formation: 137 class II probe, γ-IFN-treated 5H cells. The protocol:
Cells were grown in 6H medium with 5 % calf serum for 6-7 days to 70-80% confluence, then shifted to 5H medium with 5 % calf serum for 5 days. TSH (1×10^−10 M), gamma-interferon (100 U/ml), MMI (5 mM), and different concentrations of MMI derivatives or tautomeric cyclic thiones (0.0001 to 10 mM) were added as appropriate for […]. Cells were then harvested and extracts were made by a modification of a method of Dignam, J., et al. Methods in Enzymology, 101:582-598 (1983). In brief, cells were harvested by scraping after being washed twice with cold phosphate-buffer saline (PBS). Subsequently they were pelleted, washed in cold PBS and then pelleted again. The pellet was resuspended in Dignam buffer C (20 mM Hepes buffer at pH 7.9, 1.5 mM MgCl2, 0.42 M NaCl, 25% glycerol, 0.5 mM dithiotreitol (DTT), 0.5 mM phenylmethylsulfonylfluoride (PMSF), 1 […] pepstatin). The final NaCl concentration was adjusted on the basis of cell pellet volume to 0.42 M and cells were lysed by repeated cycles of freezing and thawing. Extracts were then centrifuged at 10,000×g at 4° C. for 20 min. The supernatant was recovered, aliquoted and stored at −70° C.
Cell extracts to perform class II gel shift studies were prepared exactly as for class I studies (Dignam et al., ibid, 582-598 (1983); Giuliani C, et al., J. Biol. Chem. 270: 11453-11462 (1995); Saji M, et al., J. Biol. Chem. 272: 20096-20107 (1997); Montani, V., et al., Endocrinology 139: 280-289 (1998a); Montani, V., et al., Endocrinology 139: 290-302 (1998b)), with the exception that the extracts were from γ-interferon treated cells, usually 100 U/ml interferon for 24 to 48 hours. Similarly, electrophoretic mobility shift assays (EMSA) were performed in the same way. Oligonucleotides used for EMSA were synthesized (Operon Technologies, Inc.) or were purified from 2 % agarose gels using either QIAEX (Qiagen, Chatsworth, Calif.) or Jet Sorb (Genomed) following restriction enzyme treatment of chimeric HLA-DRα-CAT constructs (Montani et al., 1998a, b). The oligonucleotides were dephosphorylated with calf intestinal alkaline phosphatase, labeled with […] or with [γ-^32P]ATP using T4 polynucleotide kinase, then purified on an 8% native polyacrylamide gel (Giuliani C, et al., ibid, 11453-11462 (1995); Saji M, et al., ibid, 20096-20107 (1997); Sambrook J, et al., ibid, 2:11.23-11.44 (1989); Montani, V., et al., ibid, 280-289 (1998a), 290-302 (1998b)).
Binding reactions for class II EMSA used similar conditions as well. They were carried out in a volume of 20 μl for 30 min at room temperature. The reaction mixtures contained 1.5 fmol of [^32P]DNA, 3 μg cell extract and 1.5 to 3 μg poly(di-dC) in 10 mM Tris-Cl at pH 7.9, 1 mM MgCl2, 1 mM DTT, 1 mM EDTA, and 5% glycerol. Where indicated, unlabeled double- or single-stranded oligonucleotides were added to the binding reaction as competitors and incubated with the extract for 20 min at room temperature prior to the addition of labeled DNA. Similarly, in experiments using antiserum, extracts were also incubated in the same buffer containing antiserum or normal rabbit serum for 20 min at room temperature before being processed as above. Following incubations, reaction mixtures were subjected to electrophoresis on 3.5 or 5 % native polyacrylamide gels at 160 V in 0.5xTBE, at room temperature, for 1.5 to 2 h. Gels were dried and autoradiographed at -80° C overnight unless otherwise noted.
FIG. 7 depicts the effect of MMI on the ability of γ-IFN to increase the formation of protein/DNA complexes with the […] DR α5′-flanking region probe. The radiolabeled probe is the same as that used and diagrammatically presented in FIG. 6; it contains −137 bp to +45 bp of the 5′-flanking region of DRα-CAT chimera. Extracts were from FRTL-5 rat thyroid cells grown to near confluency in TSH, maintained 6 days in SH medium, then treated with 100 U/ml γ-IFN, 5 mM MMI, or both for the last 48 h before the experiment was terminated. […]
Background: Mobility shift assays separate free from complexed probe on a gel.

The next assay deals with MHC class II RNA. The assay is described as follows: Northern analysis of MHC class II RNA levels in FRTL-5 cells. Format: cell-based, rat. The following applies: 100 U/ml γ-interferon, 6H medium, 40 hours.
The test system of a further assay is thyroglobulin RNA. Put plainly: Northern analysis of thyroglobulin RNA levels in FRTL-5 cells. It counts as cell-based, rat. Particulars: for % increase in TG RNA expression: 1 mM, 6H medium, 40 hours.

As for `Cn1ccnc1S` [Compound 1, 1-Methylimidazole-2-thiol], the “Animals with proteinuria, 30-500 (mg/dl proteinuria)” value in the assay on (NZB x NZW)F1 mice (6 mos) is 0 of 8; in the assay on (NZB x NZW)F1 mice (7.5 mos) it was 2 of 5. Moreover, the “Animals with proteinuria, >500 (mg/dl proteinuria)” value is listed as 0 of 8 in the assay with (NZB x NZW)F1 mice (6 mos) and 0 of 5 with (NZB x NZW)F1 mice (7.5 mos). Moreover, the “Animals with proteinuria, Neg-Trace (mg/dl proteinuria)” value was 8 of 8 in the assay with (NZB x NZW)F1 mice (6 mos) and 3 of 5 in the assay with (NZB x NZW)F1 mice (7.5 mos). In addition, the “significant numbers of immune complexes in kidneys (FIG. 15)” value in the assay on (NZB x NZW)F1 mice (immunohistology of frozen kidney sections) was “not true”. Also, the “development of proteinuria at 7.5 mos” value in the assay on (NZB x NZW)F1 mice is “significantly prevented proteinuria”. Also, the “% inhibition of IFN-increased complex formation” value came to 0% in assay [1] (10 μM), 0% in assay [1] (100 μM), 10 ± 5% in assay [1] (1 mM) and 85 ± 12% in assay [1] (5 mM). In addition, the “% inhibition of class II RNA expression” value with MHC class II RNA (100 μM) was “None”; with MHC class II RNA (1 mM), 29 ± 9%. Besides, the “% increase in TG RNA expression” value in the assay on thyroglobulin RNA was 207 ± 10%. Further, in the assay on thyroglobulin RNA (Table 17, 1 mM), the “increase of TG RNA levels” value is reported as around 2 fold.

As to `Cc1ncc([N+](=O)[O-])n1CCO` [Compound 2, 2-Methyl-5-nitro-1-imidazole ethanol], the “% inhibition of IFN-increased complex formation” value worked out at 0% in assay [1] (10 μM), 0% in assay [1] (100 μM), 55 ± 14% in assay [1] (1 mM) and 95 ± 10% in assay [1] (5 mM). The “suppression of interferon-induced class II protein/DNA complexes compared with MMI (FIG. 8)” value in assay [1] (1 mM) is on record as “significantly more effective suppressors than MMI”. For the same compound, the “% inhibition of class II RNA expression” value came out at 11 ± 10% with MHC class II RNA (100 μM) and 45 ± 13% in the assay with MHC class II RNA (1 mM).

For `Sc1ncc[nH]1` [Compound 3, 2-Mercaptoimidazole], the “Animals with proteinuria, 30-500 (mg/dl proteinuria)” value with (NZB x NZW)F1 mice (6 mos) was 4 of 7; in the assay with (NZB x NZW)F1 mice (7.5 mos) it was 3 of 6. Also, the “Animals with proteinuria, >500 (mg/dl proteinuria)” value in the assay with (NZB x NZW)F1 mice (6 mos) was 0 of 7; with (NZB x NZW)F1 mice (7.5 mos), 3 of 6. Further, the “Animals with proteinuria, Neg-Trace (mg/dl proteinuria)” value is 3 of 7 with (NZB x NZW)F1 mice (6 mos) and 0 of 6 with (NZB x NZW)F1 mice (7.5 mos). For the same compound, in the assay with (NZB x NZW)F1 mice, the “development of proteinuria at 7.5 mos” value is “developed significant proteinuria”. The “% inhibition of IFN-increased complex formation” value in assay [1] (10 μM), in assay [1] (100 μM), in assay [1] (1 mM) and in assay [1] (5 mM) was 0% throughout.

With `Sc1nc2ccccc2[nH]1` [Compound 4, 2-Mercaptobenzimidazole], the “% inhibition of IFN-increased complex formation” value was 0% in assay [1] (10 μM), 5% in assay [1] (100 μM), 65 ± 15% in assay [1] (1 mM) and “Insol” in assay [1] (5 mM).

Consider `O=[N+]([O-])c1ccc2[nH]c(S)nc2c1` [Compound 5, 2-Mercapto-5-nitrobenzimidazole], for which the “% inhibition of IFN-increased complex formation” value in assay [1] (10 μM) was 0%; in assay [1] (100 μM), 0%; in assay [1] (1 mM), 45 ± 21%; in assay [1] (5 mM), “Insol”.

`Cc1ccc2[nH]c(S)nc2c1` [Compound 6, 2-Mercapto-5-methylbenzimidazole]: the “% inhibition of IFN-increased complex formation” value in assay [1] (10 μM) was 0%; in assay [1] (100 μM), 0%; in assay [1] (1 mM), 35 ± 18%; in assay [1] (5 mM), “Insol”.

As to `CSc1nccn1C` [Compound 7, S-Methylmethimazole], the “% inhibition of IFN-increased complex formation” value in assay [1] (10 μM) is given as 0%; in assay [1] (100 μM), 16 ± 11%; in assay [1] (1 mM) it was 74 ± 13%. For the same compound, in assay [1] (1 mM), the “suppression of interferon-induced class II protein/DNA complexes compared with MMI (FIG. 8)” value is recorded as “significantly more effective suppressors than MMI”. In addition, the figures for the “% inhibition of class II RNA expression” value with MHC class II RNA (100 μM) and in the assay with MHC class II RNA (1 mM) were 22 ± 17% and 62 ± 14%, respectively. The “% increase in TG RNA expression” value with thyroglobulin RNA was 122 ± 14%. In the assay with thyroglobulin RNA (Table 17, 1 mM), the “increase of TG RNA levels compared with MMI” value is on record as “no comparable increase”.

On to `Cn1ccn(C)c1=S` [Compound 8, N-Methylmethimazole], for which the “% inhibition of IFN-increased complex formation” value in assay [1] (10 μM) was determined as 0%; in assay [1] (100 μM), 21 ± 18%; in assay [1] (1 mM) it was 86 ± 14%. In addition, in assay [1] (1 mM), the “suppression of interferon-induced class II protein/DNA complexes compared with MMI (FIG. 8)” value is “significantly more effective suppressors than MMI”. The results for the “% inhibition of class II RNA expression” value in the assay on MHC class II RNA (100 μM) and in the assay with MHC class II RNA (1 mM) were 32 ± 5% and 59 ± 12%, respectively. Besides, the “% increase in TG RNA expression” value in the assay on thyroglobulin RNA amounted to 129 ± 7%. In addition, in the assay on thyroglobulin RNA (Table 17, 1 mM), the “increase of TG RNA levels compared with MMI” value is recorded as “no comparable increase”.

On to `Cc1cnc(S)n1C` [Compound 9, 5-Methylmethimazole], for which the “% inhibition of IFN-increased complex formation” value in assay [1] (10 μM) came to 0%; in assay [1] (100 μM), 0%; in assay [1] (1 mM), 25 ± 15%; in assay [1] (5 mM) it was 40 ± 20%.

The values above are taken from patent US6365616B1, “Methimazole derivatives and tautomeric cyclic thiones to treat autoimmune diseases” (Sentron Medical, Inc., priority 1998, dated 2002).
